Experimental findings from paper PMC7901654, “Bioisosteric Discovery of NPA101.3, a Second-Generation RET/VEGFR2 Inhibitor Optimized for Single-Agent Polypharmacology” (Journal of Medicinal Chemistry, 2020) are described below.

One assay has as its system Lc-2/ad. Briefly: Cell growth curves, human cells. The assay is classed as cell-based. Particulars: LADC, CCDC6-RET, read-out: IC50 (95% CI), growth inhibition. The protocol: (§1) The IC50 dose for all human RET-negative cells was >100.0 nM, confirming compound selectivity (Figure S8 and Table S4).
(§2) Nthy-ory-3-1 (10000 per well), TPC-1 (10000 per well), MZ-CRC-1 (100000 per well), TT (200000 per well), Lc-2/ad (100000 per well), BCPAP (10000 per well), 8505-C (10000 per well), PC-9 (10000 per well), A549 (10000 per well), CALU-1 (10000 per well), NIH3T3 RET/C634Y (10000 per well), and NIH3T3 HRAS/G12V (10000 per well) were seeded in six-well tissue culture plates. Cells were kept in 2% (TPC-1), 5% (Nthy-ori-3-1), or 10% (BCPAP, 8505-C, CALU-1, A549, PC-9, TT, MZ-CRC-1, and Lc-2/ad) fetal calf serum or in 2% (NIH3T3 RET/C634Y and HRAS/G12V) calf serum. Ba/F3 cells (200000 per well in 2 mL) were seeded in six-well tissue culture plates and kept in 10% fetal calf serum. The day after plating, different concentrations of the drug or vehicle were added to the medium and changed every 2–3 days. Cells were counted every day (Ba/F3), every 2 days (fibroblasts), or every 2–3 days (human cell lines). To compare cell growth, we performed an unpaired Student’s t test using the Instat software program (Graphpad Software Inc.). All P values were two-sided, and differences were considered to be statistically significant at P < 0.02. IC50 doses were calculated through a curve fitting analysis from last day of growth curves using the PRISM software program (Graphpad Software Inc.).
(§3) Supplementary Table S4: NPA101.3 growth inhibitory effect on human cells.
(§4) *MTC (medullary thyoroid carcinoma); PTC (papillary thyroid carcinoma); ATC
(§5) (anaplastic thyroid carcinoma); LADC (lung adenocarcinoma)

A further assay has as its system TT. The assay can be described thus: Cell growth curves, human cells. The assay is classed as cell-based. Particulars: MTC, RET C634W, read-out: IC50 (95% CI), growth inhibition. The protocol: as §1, §2, §3, §4, §5
In the next assay the test system is MZ-CRC-1. Briefly: Cell growth curves, human cells. The assay is classed as cell-based. Particulars: MZ-CRC-1, MTC, RET M918T, read-out: IC50 (95% CI), growth inhibition. The protocol:
as §1, §2, §3, §4, §5

For a further assay, the target named is T1, human VEGFR2 (Homo sapiens, UniProt P35968).
T1 construct: expressed in transfected cells; host or cells: HEK293, transient transfection
T1 sequence (P35968 20-1356): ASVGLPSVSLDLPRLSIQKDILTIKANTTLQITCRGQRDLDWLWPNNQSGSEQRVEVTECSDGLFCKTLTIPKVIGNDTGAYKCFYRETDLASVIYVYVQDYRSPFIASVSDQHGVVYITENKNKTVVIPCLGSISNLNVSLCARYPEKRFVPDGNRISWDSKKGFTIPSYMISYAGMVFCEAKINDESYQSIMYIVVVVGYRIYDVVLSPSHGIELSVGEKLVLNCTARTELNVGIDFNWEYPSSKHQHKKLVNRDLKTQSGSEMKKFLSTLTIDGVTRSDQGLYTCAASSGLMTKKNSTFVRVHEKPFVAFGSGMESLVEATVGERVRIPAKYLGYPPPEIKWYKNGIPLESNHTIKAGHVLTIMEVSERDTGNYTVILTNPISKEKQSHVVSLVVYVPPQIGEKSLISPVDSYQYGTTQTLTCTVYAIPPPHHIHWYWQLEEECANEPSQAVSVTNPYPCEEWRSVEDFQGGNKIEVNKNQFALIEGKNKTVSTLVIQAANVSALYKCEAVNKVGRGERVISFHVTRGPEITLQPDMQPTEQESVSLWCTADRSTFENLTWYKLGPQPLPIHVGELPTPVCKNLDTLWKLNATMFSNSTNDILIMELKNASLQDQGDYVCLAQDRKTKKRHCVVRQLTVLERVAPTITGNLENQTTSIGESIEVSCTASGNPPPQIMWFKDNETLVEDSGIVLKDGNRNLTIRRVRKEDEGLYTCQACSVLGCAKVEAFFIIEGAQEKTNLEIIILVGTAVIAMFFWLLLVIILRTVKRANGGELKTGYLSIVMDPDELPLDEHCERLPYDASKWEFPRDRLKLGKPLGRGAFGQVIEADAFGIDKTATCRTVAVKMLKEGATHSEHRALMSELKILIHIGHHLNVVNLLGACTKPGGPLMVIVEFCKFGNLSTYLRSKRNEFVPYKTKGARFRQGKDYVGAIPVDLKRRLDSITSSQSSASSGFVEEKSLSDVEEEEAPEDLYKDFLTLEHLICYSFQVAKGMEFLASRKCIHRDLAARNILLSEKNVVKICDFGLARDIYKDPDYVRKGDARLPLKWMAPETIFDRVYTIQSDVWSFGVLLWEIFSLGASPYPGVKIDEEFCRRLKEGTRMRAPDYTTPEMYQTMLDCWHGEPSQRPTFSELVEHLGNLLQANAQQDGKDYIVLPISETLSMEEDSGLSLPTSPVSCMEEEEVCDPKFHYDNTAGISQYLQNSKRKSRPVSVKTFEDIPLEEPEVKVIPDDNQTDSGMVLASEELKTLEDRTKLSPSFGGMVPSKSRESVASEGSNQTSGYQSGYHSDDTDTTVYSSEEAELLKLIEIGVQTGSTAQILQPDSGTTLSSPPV
The assay can be described thus: Ligand-induced VEGFR2 autophosphorylation in transfected HEK293 cells. The assay is classed as cell-based. The conditions noted are these: 2 h, VEGFA 100 ng/mL. The protocol:
Fibroblasts transfected with RET/C634R were treated with increasing doses of NPA101.3, ranging from 0.1 to 10.0 nM. RET autophosphorylation was assessed by Western blotting using two different antibodies that can recognize phosphorylated Y905, located in the RET kinase activation loop, or Y1062, a multidocking site involved in RET downstream signaling.[41]
Figure 4 NPA101.3-mediated inhibition of phosphorylation and signaling of oncogenic RET mutants and VEGFR2 in intact cells. Serum-starved RAT1 cells exogenously expressing the (A and B) indicated RET point mutants or (C) NIH3T3 cells exogenously expressing the indicated RET rearranged mutants were treated for 2 h with the indicated concentrations of the compound. Total cell lysates (50 μg) were subjected to immunoblotting with anti-phospho-Y1062 (αp1062) and anti-phospho-Y905 (αp905) RET antibodies. The blots were normalized using the anti-RET (αRET) antibody. (D) HEK293 cells were transiently transfected with human VEGFR2; 36 h after transfection, cells were serum starved for 12 h. The indicated doses of the compound or vehicle (NT) were added for 2 h, and then VEGFA (100 ng/mL) stimulation was applied for 15 min. […]
Protein lysates were prepared according to standard procedures. […] Immune complexes were detected with the enhanced chemiluminescence kit (Amersham Pharmacia Biotech, Little Chalfont, U.K.). […]

Assay [1] deals with Nthy-ori-3.1, BCPAP, 8505-C, PC-9, A549, CALU-1. Briefly: SHC/MAPK signalling in control cell lines lacking RET oncogenes. The assay is classed as cell-based, human. The conditions noted are these: 2 h treatment. The protocol: NPA101.3 inhibited RET autophosphorylation and signaling along the SHC/MAPK pathway in human cancer cell lines endogenously expressing RET oncogenic variants, including MTC cell lines, TT (RET/C634W) and MZ-CRC-1 (RET/M918T), and PTC cell line TPC-1 (CCDC6-RET); in the lung adenocarcinoma cell line Lc-2/ad (CCDC6-RET), only RET and SHC (but not MAPK) dephosphorylation was detectable (Figure S4).
Protein lysates were prepared according to standard procedures. Briefly, cells were lysed in a buffer containing 50 mM N-2-hydroxyethylpiperazine-N′-2-ethanesulfonic acid (HEPES; pH 7.5), 1% (v/v) Triton X-100, 150 mM NaCl, 5 mM EGTA, 50 mM NaF, 20 mM sodium pyrophosphate, 1 mM sodium vanadate, 2 mM phenylmethanesulfonyl fluoride (PMSF), and 1 μg/mL aprotinin. Lysates were clarified by centrifugation at 10000g for 15 min. […] Immune complexes were detected with the enhanced chemiluminescence kit (Amersham Pharmacia Biotech, Little Chalfont, U.K.). Anti-phospho-SHC (#Y317), which recognizes SHC protein when phosphorylated on Y317, was from Upstate Biotechnology Inc. (Lake Placid, NY). Anti-SHC (H-108) was from Santa Cruz Biotechnology (Santa Cruz, CA). Anti-MAPK (9101) and anti-phospho-MAPK (9102), specific for p42/44MAPK (ERK1/2) phosphorylated on Thr202/Tyr204, antibodies were from Cell Signaling Technologies (Danvers, MA). […]

For `CC(C)(C)c1cc(NC(=O)Cc2ccc(-n3cnc4cc(-c5ccc(S(C)(=O)=O)cc5)ccc43)cc2)no1` [NPA101.3], the concentration for half-maximal inhibition (IC50) (commonly the concentration needed to halve the response being measured) in the assay on Lc-2/ad is 3.6 nM; in the assay with TT it was 2.19 nM; in the assay with MZ-CRC-1, 2.21 nM. The “ligand-induced VEGFR2 autophosphorylation” value on human VEGFR2 (1.0 nM) is “reduced”. The “inhibition of ligand-induced VEGFR2 autophosphorylation” value against human VEGFR2 (10.0 nM) was “virtually total”. The “effect on SHC/MAPK signaling” value in assay [1] is given as “Virtually no effect”.
